Several values for one entry are separate records, joined by “and”; a condition that tells them apart may be missing. Equal values may be shown once.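 Step 1: Grow cells in 96-well plates. Step 2: Expose to compound for 48 hours at 5 concentrations. Step 3: Interpolate endpoints linearly; if unreached, use highest concentration. GI50 marks 50% less growth. At the TGI there is no net growth.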
Experiments:
Experiment in all cases: growth of human tumour cells (NCI), 48 h
[1] = system: RPMI-8226 leukemia
[2] = system: HCT-15 colon
[3] = system: NCI/ADR-RES ovarian
[4] = system: A549 NSCLC
[5] = system: CCRF-CEM leukemia
[6] = system: UACC-62 melanoma
[7] = system: SNB-75 CNS
[8] = system: OVCAR-3 ovarian
[9] = system: ACHN renal
[10] = system: IGROV1 ovarian
[11] = system: SN12C renal
[12] = system: HOP-92 NSCLC

| SMILES | TGI [1] | TGI [2] | TGI [3] | TGI [4] | TGI [5] | TGI [6] | TGI [7] | TGI [8] | TGI [9] | TGI [10] | TGI [11] | TGI [12] | GI50 [1] | GI50 [2] | GI50 [3] | GI50 [4] | GI50 [12] | GI50 [7] | GI50 [10] | GI50 [11] |
| --- | --- | --- | --- | --- | --- | --- | --- | --- | --- | --- | --- | --- | --- | --- | --- | --- | --- | --- | --- | --- |
| CC(C)(C)c1ccc(O)c(Br)c1 | > 100 µM | > 100 µM | > 100 µM | > 100 µM | > 100 µM | > 100 µM | > 100 µM | > 100 µM | > 100 µM | > 100 µM | > 100 µM | – | – | – | – | – | – | – | – | – |
| Clc1ccc(NCc2nnc(COc3ccc(OCc4nnc(CNc5ccc(Cl)cc5)o4)c(Cl)c3)o2)cc1 | 36.9 µM | > 100 µM | 68.5 µM | > 100 µM | 44.8 µM | > 100 µM | – | 93.5 µM | > 100 µM | > 100 µM | > 100 µM | 83.5 µM | – | – | – | – | – | – | – | – |
| CC(C)(C)OC(=O)N1C[C@H](CC(=O)OCc2ccccc2)C[C@H]1C(=O)OCC(Cl)(Cl)Cl | – | > 50 µM | > 50 µM | > 50 µM | > 50 µM | > 50 µM | > 50 µM | 32.9 µM | > 50 µM | – | > 50 µM | 21.5 µM | – | – | – | – | – | – | – | – |
| COC1OC(C(=O)CP(=O)(OC)OC)C(OCc2ccccc2)C(OCc2ccccc2)C1OCc1ccccc1 (stereo not drawn) | – | 33.4 µM and 36.1 µM | 42.6 µM and 46 µM | 31.2 µM and 31.9 µM | > 100 µM and 96.3 µM | 26.6 µM and 28 µM | 29.9 µM and 30.6 µM | 30.3 µM and 28.7 µM | 29.4 µM and 29.9 µM | 35.9 µM and 35.4 µM | 30.1 µM and 30 µM | 37.1 µM and 34.7 µM | – | – | – | – | – | – | – | – |
| O=C(CSc1nc2ccc(Cl)cc2c(=O)n1-c1ccccc1)N=Nc1c(O)[nH]c2ccc(F)cc12 | 3.9 µM | 3.45 µM | 8.44 µM | 5.42 µM | 6.34 µM | 7.1 µM | 5.65 µM | 4 µM | 4.1 µM | 4.39 µM | 4.67 µM | 8.51 µM | – | – | – | – | – | – | – | – |
| CCOC(=O)C(=CNC(Cc1c[nH]c2ccccc12)C(=O)OC)C(=O)OCC (stereo not drawn) | > 100 µM | > 100 µM | – | – | > 100 µM | > 100 µM | > 100 µM | > 100 µM | > 100 µM | > 100 µM | > 100 µM | > 100 µM | – | – | – | – | – | – | – | – |
| CCN(CC)/[N+]([O-])=N/OC | – | > 100 µM | – | > 100 µM | > 100 µM | > 100 µM | – | > 100 µM | > 100 µM | > 100 µM | > 100 µM | > 100 µM | – | – | – | – | – | – | – | – |
| C=C1CCCC(C)(C)[C@@H]1CC/C(C)=C/Cn1c2cccc(=O)c-2nc2ccccc21 | 9.68 µM and 17.8 µM | – | – | – | 13 µM | 2.47 µM | 4.54 µM and 5.04 µM | 18.9 µM and 12.5 µM | – | 8.87 µM and 6.11 µM | – | – | 3.06 µM | 4.34 µM | 4.23 µM | 20.9 µM | 22.7 µM | 2.09 µM | 2.71 µM | 5.57 µM |
| O=C(N/N=C\c1ccc([N+](=O)[O-])cc1)Nc1ccccc1 | > 100 µM | > 100 µM | > 100 µM | – | > 100 µM | > 100 µM | > 100 µM | > 100 µM | – | > 100 µM | > 100 µM | > 100 µM | – | – | – | – | – | – | – | – |
| COc1ccc(Cc2nc3cc(Cl)ccc3o2)cc1 | 83.9 µM | > 100 µM | 76.9 µM | > 100 µM | > 100 µM | > 100 µM | 59.1 µM | 94.1 µM | > 100 µM | > 100 µM | > 100 µM | > 100 µM | – | – | – | – | – | – | – | – |
| Cn1c2c(c3c(=O)[nH]ncc31)CCc1ccccc1-2 | 67.4 µM | 67.3 µM | 89 µM | > 100 µM | 60.7 µM | – | 87.8 µM | 72.2 µM | 72.4 µM | 60.2 µM | > 100 µM | > 100 µM | – | – | – | – | – | – | – | – |
| NC(N)=NS(=O)(=O)c1ccc(Nc2c3ccccc3nc3c(C(=O)N4CCN(CCO)CC4)ccc(Cl)c23)cc1 | > 100 µM | > 100 µM | – | > 100 µM | > 100 µM | > 100 µM | > 100 µM | > 100 µM | > 100 µM | > 100 µM | > 100 µM | > 100 µM | – | – | – | – | – | – | – | – |
| Cc1cc(O)c2c(c1O)C(=O)c1c(O)ccc(O)c1C2=O | > 100 µM | > 100 µM | > 100 µM | > 100 µM | > 100 µM | > 100 µM | > 100 µM | > 100 µM | > 100 µM | > 100 µM | > 100 µM | > 100 µM | – | – | – | – | – | – | – | – |
| Fc1cc(C2=C[C@H](c3ccc4c(c3)OCO4)NC(=S)N2)c(Cl)cc1Cl | > 100 µM | > 100 µM | > 100 µM | > 100 µM | > 100 µM | > 100 µM | 91.1 µM | > 100 µM | > 100 µM | > 100 µM | 90.8 µM | > 100 µM | – | – | – | – | – | – | – | – |
| O=CC(O)C(O)C(O)COc1cc(CO)cc2c1C(=O)c1ccccc1C2=O (stereo not drawn) | > 100 µM | > 100 µM | – | > 100 µM | > 100 µM | > 100 µM | > 100 µM | > 100 µM | > 31.6 µM | > 100 µM | > 100 µM | > 100 µM | – | – | – | – | – | – | – | – |
| CCCCCCOC(=O)C(N)Cc1ccc(OC)cc1 (stereo not drawn) | – | > 100 µM | > 100 µM | > 100 µM | > 100 µM | > 100 µM | > 100 µM | > 100 µM | > 100 µM | > 100 µM | > 100 µM | > 100 µM | – | – | – | – | – | – | – | – |

From PubChem BioAssay (NCI)
